A word on the EC50: it is the concentration that produces a half-maximal response.

This passage reports EC50 results from patent US11230526B1, “Cylcoalkenyl derivatives useful as agonists of the GPR120 and/or GPR40 receptors” (Janssen Pharmaceutica NV, priority 2018, dated 2022).

Holding throughout (format): cell-based
Test [1] deals with T1, short form of the GPR120 receptor (Homo sapiens, UniProt Q5NUL3).
T1 construct: host or cells: PathHunter CHO-K1 GPR120S β-Arrestin Cell Line
Put plainly: Human GPR120 DiscoveRx PathHunter Beta-Arrestin assay, Procedure β-arrestin B. From the text: Human GPR120 DiscoveRx PathHunter® Beta-Arrestin Assay Assay Principle:
The binding of an agonist (medium/long chain fatty acids or small molecule agonists) to the G-protein-coupled receptor GPR120 activates phospholipase C, leading to release of intracellular Ca^+2 through the generation of inositol 1,4,5-trisphosphate (InsP3 or IP3). GPR120 activation can also trigger intracellular signaling via recruitment of Beta-Arrestin. In the present method, agonist-induced activation of the human GPR120 receptor is monitored through the use of PathHunter® CHO-K1 GPR120 Beta-Arrestin Cell Line engineered by DiscoveRx, as detailed below. The cell lines are designed to co-express both the ProLink/Enzyme Donor (PK)-tagged GPCR and the Enzyme […] (EA)-tagged Beta-Arrestin fusion proteins. Upon GPR120 receptor stimulation/activation, the EA-tagged Beta-Arrestin portion is translocated to the tagged receptor, where the two enzyme fragments are brought within close proximity. Under these conditions, these fragments can interact and form an active Beta-gal enzyme complex through Enzyme Fragment Complementation (EFC). This active Beta-gal complex can enzymatically hydrolyse the substrate to produce a detectable light signal; therefore, activation as a function of agonist concentration can be expressed as an EC50 value to determine relative compound activities. This in vitro assay therefore serves to assess compound agonist activity of the GPR120.
In Procedure β-arrestin B the cells used were PathHunter® CHO-K1 GPR120S β-Arrestin Cell Line, expressing the short form of the GPR120 receptor (Accession #[…]), with 5000 cells/well.
The selected CHO-K1 GPR120 β-Arrestin cells were cultured in Ham's F12 media supplemented with 10% fetal bovine serum (FBS), 1% Glutamine, 1×p/s, 800 μg/mL G418 and 300 μg/mL Hygromycin B (for selection). Cell stocks were maintained and grown in a sub-confluent state using standard cell culture procedures. The day before the experiment, the cells were harvested with non-enzymatic cell dissociation buffer and re-suspended in complete growth media at the desired concentration. A Corning 384-plate was then seeded with the proper number of cells in a volume of 25 μL, per well. The seeded plates were incubated overnight at 37° C.
On the day of the experiment, the Assay Buffer containing (a) HBSS with Ca^++ and Mg^++, (b) 20 mM HEPES, and (c) 0.1% BSA stabilizer (pH 7.4) was prepared. The growth medium was gently removed from the cell plates and 20 μL of Assay Buffer added to each well. The plate was then incubated at 37° C. for 60 min. Test compounds were serially diluted in Assay Buffer to desired concentrations (more particularly to one or more of the following μM concentrations: 25, 12.5, 6.25, 3.12, 1.56, 0.78, 0.39, 0.19, 0.10, 0.05, 0.02, 0.01). Five μL of compound dilution was then added to each well and the plate incubated at 37° C. for 90 min. The detection reagents were prepared according to the manufacture's instruction. Twelve μL of the detection reagents were added to each well and the plate incubated at room temperature for 60 min.
The plates were read on an EnVision instrument, using Protocol name: Luminescence, Plate type: 384 Costar, Measurement height: 3 mm, Measurement time: 1 s, Aperture: 384 Plate aperture. The % Activity relative to the positive control was calculated using the following equation:
The % Activity values were plotted versus the concentration of test compound and fitted to a sigmoidal dose-response curve with a Hill slope=1 (fixed value) using nonlinear regression with GraphPad Prism 5.0 to calculate the EC50 values. The Fitting Equation was: Y=Bottom+(Top-Bottom)/(1+10^((Log EC50−X)*HillSlope)), where X is the log of the concentration and Y is the response.

Test [2] deals with T2, Human GPR120 short form (Homo sapiens, UniProt Q5NUL3).
T2 construct: expressed in transfected cells
T2 sequence (Q5NUL3 1-361): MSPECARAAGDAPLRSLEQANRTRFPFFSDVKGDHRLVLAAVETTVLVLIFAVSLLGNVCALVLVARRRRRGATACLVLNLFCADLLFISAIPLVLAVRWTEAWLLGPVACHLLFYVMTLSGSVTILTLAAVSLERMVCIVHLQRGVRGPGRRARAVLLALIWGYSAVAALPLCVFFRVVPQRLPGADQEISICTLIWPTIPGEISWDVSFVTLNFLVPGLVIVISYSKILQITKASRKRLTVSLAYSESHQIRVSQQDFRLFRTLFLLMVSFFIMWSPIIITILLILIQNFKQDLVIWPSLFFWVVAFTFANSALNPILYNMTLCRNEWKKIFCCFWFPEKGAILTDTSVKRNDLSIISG
The experiment in a line: Human GPR120 calcium flux assay, Procedure Calcium B (4200 cells/well). The method in brief: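 Agonist EC50 came from a four-parameter fit of RFU (Fmax−Fmin) read over 300 s on FLIPR. Cells were HEK293 stably transfected with human GPR120 (NM_001195755.1) at 4200 per well, serum-starved 1 h and loaded with Fluo-4 NW dye with probenecid before ligand addition.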
For orientation: Calcium flux is commonly read through the fluorescence of an indicator in the cells.

Test [3] deals with T3, human GPR40 (Homo sapiens, UniProt O14842).
T3 construct: expressed in transfected cells
T3 sequence (O14842 whole entry): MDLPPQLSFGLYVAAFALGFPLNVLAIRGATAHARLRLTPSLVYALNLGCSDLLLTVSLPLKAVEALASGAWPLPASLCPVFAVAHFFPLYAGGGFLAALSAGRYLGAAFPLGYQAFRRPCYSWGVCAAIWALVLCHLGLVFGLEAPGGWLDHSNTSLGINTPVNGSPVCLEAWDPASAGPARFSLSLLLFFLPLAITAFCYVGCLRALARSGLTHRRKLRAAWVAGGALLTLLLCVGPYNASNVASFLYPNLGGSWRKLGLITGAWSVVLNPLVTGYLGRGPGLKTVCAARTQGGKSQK
The experiment in a line: GPR40 calcium flux assay, human GPR40. The note with it: HEK293 cells stably expressing GPR40; table does not say human or rat. The method in brief:
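Cells preincubated 1 h at 37° C. in HBSS, 20 mM HEPES, 0.1% BSA, then Fluo 8 calcium dye 30 min at 37° C. and 15 min at room temperature.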

Test [4] addresses T4, long form of human GPR120 (Homo sapiens, UniProt Q5NUL3).
T4 construct: host or cells: PathHunter CHO-K1 GPR120 β-Arrestin Cell Line
The experiment in a line: Human GPR120 DiscoveRx PathHunter Beta-Arrestin assay, Procedure β-arrestin A. The method in brief:
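PathHunter CHO-K1 cells expressing long-form human GPR120 (3000/well) were seeded overnight. They were then preincubated 60 min in HBSS with 20 mM HEPES and 0.1% BSA, pH 7.4, and exposed to compound for 90 min at 37 °C. β-Arrestin recruitment was read as β-gal complementation luminescence. EC50 came from % activity versus positive control, Hill slope fixed at 1.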

For test [5], the target named is T2, Human GPR120 short form. Put plainly: Human GPR120 calcium flux assay, Procedure Calcium A (2500 cells/well). The method in brief:
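HEK293 cells stably expressing human GPR120 short isoform (NM_001195755.1), 2500 cells/well, serum-starved 1 h at 37 °C and loaded with Fluo-4 NW plus probenecid. FLIPR fluorescence read for 300 s after compound addition; response = Fmax−Fmin. EC50 from four-parameter concentration–response fit.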

Each structure is given as a SMILES string.

T4 sequence (Q5NUL3 1-377 isoform Q5NUL3-1): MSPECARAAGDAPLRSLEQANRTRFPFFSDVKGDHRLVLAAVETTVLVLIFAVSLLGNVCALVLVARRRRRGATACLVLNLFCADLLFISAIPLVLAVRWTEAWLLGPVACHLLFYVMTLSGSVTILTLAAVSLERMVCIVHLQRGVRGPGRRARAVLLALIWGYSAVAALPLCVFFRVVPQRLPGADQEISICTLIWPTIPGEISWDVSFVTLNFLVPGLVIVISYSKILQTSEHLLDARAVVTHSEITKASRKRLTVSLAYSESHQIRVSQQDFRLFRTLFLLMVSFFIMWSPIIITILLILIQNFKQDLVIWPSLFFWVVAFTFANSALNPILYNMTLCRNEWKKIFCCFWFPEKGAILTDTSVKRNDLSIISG
T4 sequence (P32121 whole entry partner): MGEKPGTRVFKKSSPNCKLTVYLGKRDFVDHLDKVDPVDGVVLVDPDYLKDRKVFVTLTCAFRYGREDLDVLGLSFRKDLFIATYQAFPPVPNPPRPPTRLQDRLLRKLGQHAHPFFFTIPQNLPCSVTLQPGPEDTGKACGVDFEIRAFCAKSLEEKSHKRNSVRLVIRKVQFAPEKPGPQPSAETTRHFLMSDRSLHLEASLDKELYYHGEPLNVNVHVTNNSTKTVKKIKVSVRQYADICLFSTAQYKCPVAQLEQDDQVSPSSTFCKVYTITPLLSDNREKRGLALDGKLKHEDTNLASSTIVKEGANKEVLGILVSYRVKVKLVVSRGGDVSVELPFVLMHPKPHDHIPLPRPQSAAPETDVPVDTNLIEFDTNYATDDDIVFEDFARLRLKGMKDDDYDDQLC
T1 sequence (P32121 whole entry partner, one chain of several): as the sequence (P32121 whole entry partner) above

Consider `Cc1c(CCC(=O)O)ccc(OCC2=C(c3ccc(Cl)cc3)CCC2C(F)(F)F)c1C` (stereo not drawn) [Compound 12, 3-[4-[[2-(4-chlorophenyl)-5-(trifluoromethyl)cyclopenten-1-yl]methoxy]-2,3-dimethyl-phenyl]Propanoic Acid], for which the EC50 was 93 nM in test [1], 481 nM in test [2] and more than 5000 nM in test [3].
Consider `O=C(O)CCc1ccc(OCC2=C(c3ccc(Cl)cc3)CCC2C(F)(F)F)c(F)c1F` (stereo not drawn) [Compound 32, 3-[4-[[2-(4-chlorophenyl)-5-(trifluoromethyl)cyclopenten-1-yl]methoxy]-2,3-difluoro-phenyl]Propanoic Acid], for which the EC50 is 341 nM in test [4], 203 nM in test [1], 311 nM in test [2] and more than 5000 nM in test [3].
Turning to `O=C(O)CCc1cc(F)c(OCC2=C(c3ccc(Cl)cc3)CCC2C(F)(F)F)c(F)c1` (stereo not drawn) [Compound 33, 3-[4-[[2-(4-chlorophenyl)-5-(trifluoromethyl)cyclopenten-1-yl]methoxy]-3,5-difluoro-phenyl]Propanoic Acid], the EC50 in test [4] is 312 nM; in test [1], 180 nM; in test [2], 288 nM; in test [3], more than 5000 nM.
On to `CSc1ccc(C2=C(COc3ccc(CCC(=O)O)c(C)c3C)CCC2)cc1` [Compound 50, 3-[2,3-dimethyl-4-[[2-(4-methylsulfanylphenyl)cyclopenten-1-yl]methoxy]phenyl]Propanoic Acid], for which the EC50 in test [1] is 709 nM; in test [5], 409 nM; in test [2] it was 183 nM.
Regarding `Cc1c(CCC(=O)O)ccc(OCC2=C(c3ccc(C(C)C)cc3)CCC2)c1C` [Compound 55, 3-[4-[[2-(4-isopropylphenyl)cyclopenten-1-yl]methoxy]-2,3-dimethyl-phenyl]Propanoic Acid], the values for the EC50 in test [1], in test [5] and in test [2] were 246 nM, 793 nM and 282 nM, respectively.
In the case of `Cc1c(CCC(=O)O)ccc(OCC2=C(c3ccc(Br)cc3)CCC2)c1C` [Compound 56, 3-[4-[[2-(4-bromophenyl)cyclopenten-1-yl]methoxy]-2,3-dimethyl-phenyl]Propanoic Acid], the EC50 was 85 nM in test [1], 324 nM in test [5] and 37 nM in test [2].
As for `Cc1c(CCC(=O)O)ccc(OCC2=C(c3ccc(I)cc3)CCC2)c1C` [Compound 57, 3-[4-[[2-(4-iodophenyl)cyclopenten-1-yl]methoxy]-2,3-dimethyl-phenyl]Propanoic Acid], the EC50 amounted to 258 nM in test [1], 527 nM in test [5] and 50 nM in test [2].
In the case of `Cc1c(CCC(=O)O)ccc(OCC2=C(c3ccc(C(F)(F)F)cc3)CCC2)c1C` [Compound 75, 3-[2,3-dimethyl-4-[[2-[4-(trifluoromethyl)phenyl]cyclopenten-1-yl]methoxy]phenyl]Propanoic Acid], the EC50 in test [1] is 171 nM; in test [5] it was 591 nM; in test [2] it was 195 nM.
Consider `Cc1ccc(C2=C(COc3ccc(CCC(=O)O)c(F)c3F)CCC2)cn1` [Compound 87, 3-(2,3-difluoro-4-((2-(6-methylpyridin-3-yl)cyclopent-1-en-1-yl)methoxy)phenyl)Propanoic Acid], for which the EC50 in test [1] is 493 nM; in test [3], more than 5000 nM.
With `Cc1c(CCC(=O)O)ccc(OCC2=C(c3ccc(F)c(F)c3)CCC2)c1C` [Compound 117], the EC50 in test [4] was 256 nM; in test [1], 190 nM; in test [2], 110 nM; in test [3], more than 5000 nM.
For `[2H]C(C(=O)O)C([2H])c1ccc(OCC2=C(c3ccc(Cl)cc3)CCC2)c(C)c1` (stereo not drawn) [Compound 126-D, 3-(4-((2-(4-chlorophenyl)cyclopent-1-en-1-yl)methoxy)-3-methylphenyl)Propanoic-2,3-d2 Acid] the same measures were 35 nM, 45 nM, 10 nM and more than 5000 nM.
With `O=C(O)CCc1ccc(OCC2=C(c3ccc(Cl)cc3)CCC2)c(Br)c1` [Compound 129, 3-[3-bromo-4-[[2-(4-chlorophenyl)cyclopenten-1-yl]methoxy]phenyl]Propanoic Acid], the EC50 is 47 nM in test [1], 21 nM in test [2] and more than 5000 nM in test [3].
For the compound `O=C(O)CCc1ccc(OCC2=C(c3ccc(Cl)cc3)CCC2)c(I)c1` [Compound 130, 3-[3-iodo-4-[[2-(4-chlorophenyl)cyclopenten-1-yl]methoxy]phenyl]Propanoic Acid], the EC50 was 87 nM in test [4], 41 nM in test [1], 34 nM in test [2] and more than 5000 nM in test [3].
As to `Cc1ccc(C2=C(COc3c(F)cc(CCC(=O)O)cc3F)CCC2)cc1N` [Compound 135, 3-(4-((2-(3-amino-4-methylphenyl)cyclopent-1-en-1-yl)methoxy)-3,5-difluorophenyl)Propanoic Acid], the figures for the EC50 in test [1] and in test [3] were 1250 nM and more than 5000 nM, respectively.
Consider `Cc1c(CCC(=O)O)ccc(OCC2=C(c3ccc(C(F)(F)F)cc3)CCCC2)c1C` [Compound 460, 3-[2,3-dimethyl-4-[[2-[4-(trifluoromethyl)phenyl]cyclohexen-1-yl]methoxy]phenyl]Propanoic Acid], for which the EC50 came out at 625 nM in test [1], 1010 nM in test [5] and 385 nM in test [2].
With `Cc1ccc(C2=C(COc3ccc(CCC(=O)O)c(C)c3C)CCCC2)cc1` [Compound 462, 3-[2,3-dimethyl-4-[[2-(p-tolyl)cyclohexen-1-yl]methoxy]phenyl]Propanoic Acid], the EC50 in test [1] is 478 nM; in test [5], 462 nM; in test [2], 66 nM.
For `Cc1c(CCC(=O)O)ccc(OCC2=C(c3ccc(F)cc3)CCCC2)c1C` [Compound 480, 3-[4-[[2-(4-fluorophenyl)cyclohexen-1-yl]methoxy]-2,3-dimethyl-phenyl]Propanoic Acid] the same measures were 385 nM, 234 nM and 79 nM.
